Measurements from patent publication US20240383905A1, “FGFR INHIBITORS AND METHODS OF USE THEREOF” (3H PHARMACEUTICALS CO., LTD., priority 2021, published 2024).

Tests used:
FGFR2 = biological target: T1, FGFR2 (Homo sapiens, UniProt P21802); assay: FGFR2 Biochemical Caliper Assay (KinEASE-TK kit); conditions: 0.07 nM FGFR2; compound incubated with protein 10 min, reaction 45 min at RT; read-out: FGFR2 Cliper IC50
T1 construct: purchased Carna 08-134

FGFR1 = biological target: T2, FGFR1 (Homo sapiens, UniProt P11362); assay: FGFR1 Biochemical Caliper Assay (KinEASE-TK kit); conditions: ratio FGFR1/FGFR2 of the biochemical assay
T2 construct: purchased Carna 08-133
T2 sequence (P11362 22-822): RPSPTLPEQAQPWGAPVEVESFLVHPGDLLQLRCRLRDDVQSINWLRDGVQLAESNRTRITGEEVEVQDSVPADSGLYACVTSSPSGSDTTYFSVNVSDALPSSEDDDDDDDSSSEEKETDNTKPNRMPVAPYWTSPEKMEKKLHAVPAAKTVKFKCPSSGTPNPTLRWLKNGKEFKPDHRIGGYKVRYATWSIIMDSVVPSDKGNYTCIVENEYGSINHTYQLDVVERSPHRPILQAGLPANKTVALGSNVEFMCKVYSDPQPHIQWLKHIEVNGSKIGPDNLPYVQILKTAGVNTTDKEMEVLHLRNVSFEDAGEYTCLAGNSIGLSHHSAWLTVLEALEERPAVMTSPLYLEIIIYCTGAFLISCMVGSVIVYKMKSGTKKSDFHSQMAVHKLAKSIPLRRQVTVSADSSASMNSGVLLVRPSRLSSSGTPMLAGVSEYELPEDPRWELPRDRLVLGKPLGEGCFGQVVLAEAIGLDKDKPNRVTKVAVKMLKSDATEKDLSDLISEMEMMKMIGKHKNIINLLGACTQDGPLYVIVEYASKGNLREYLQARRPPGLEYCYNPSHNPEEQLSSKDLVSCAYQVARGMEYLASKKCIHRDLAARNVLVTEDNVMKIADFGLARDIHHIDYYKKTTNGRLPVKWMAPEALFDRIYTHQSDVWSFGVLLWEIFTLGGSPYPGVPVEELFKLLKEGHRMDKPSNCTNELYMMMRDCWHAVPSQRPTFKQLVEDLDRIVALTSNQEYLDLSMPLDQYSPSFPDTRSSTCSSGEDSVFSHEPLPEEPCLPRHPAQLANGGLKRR
Summary of the method: (§1)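 KinEASE-TK HTRF readout: enzyme at 0.2 nM (FGFR1, FGFR3) preincubated 10 min at RT with 10-point 3-fold compound dilutions before TK-substrate/ATP start.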

FGFR3 = biological target: T3, FGFR3 (Homo sapiens, UniProt P22607); assay: FGFR3 Biochemical Caliper Assay (KinEASE-TK kit); conditions: ratio FGFR3/FGFR2 of the biochemical assay
T3 construct: purchased Carna 08-135
T3 sequence (P22607 23-806): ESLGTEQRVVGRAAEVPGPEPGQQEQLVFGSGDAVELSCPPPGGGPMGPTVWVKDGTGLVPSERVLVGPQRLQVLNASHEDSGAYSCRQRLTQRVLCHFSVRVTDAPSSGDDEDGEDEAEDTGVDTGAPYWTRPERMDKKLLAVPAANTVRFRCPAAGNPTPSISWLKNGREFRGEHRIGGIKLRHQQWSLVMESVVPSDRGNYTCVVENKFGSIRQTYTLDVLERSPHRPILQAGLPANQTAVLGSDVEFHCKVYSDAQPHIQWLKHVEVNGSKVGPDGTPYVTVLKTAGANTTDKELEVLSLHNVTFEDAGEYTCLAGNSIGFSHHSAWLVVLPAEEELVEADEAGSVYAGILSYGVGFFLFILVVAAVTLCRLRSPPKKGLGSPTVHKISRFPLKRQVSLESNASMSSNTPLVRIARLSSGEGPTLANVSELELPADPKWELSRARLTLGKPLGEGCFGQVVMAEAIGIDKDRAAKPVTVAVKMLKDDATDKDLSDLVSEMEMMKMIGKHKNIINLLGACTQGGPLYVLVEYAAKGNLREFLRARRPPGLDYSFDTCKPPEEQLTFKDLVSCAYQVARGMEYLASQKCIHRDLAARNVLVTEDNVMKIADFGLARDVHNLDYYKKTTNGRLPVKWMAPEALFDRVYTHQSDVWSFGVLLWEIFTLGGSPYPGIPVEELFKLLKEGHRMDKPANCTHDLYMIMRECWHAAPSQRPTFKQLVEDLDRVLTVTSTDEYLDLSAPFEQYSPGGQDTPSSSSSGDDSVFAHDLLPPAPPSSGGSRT
Summary of the method: as §1

SNU16 cells = assay: SNU16 Cancer Cell Line Proliferation Assay (CellTiter-Glo); format: cell-based; conditions: Homo sapiens, SNU-16, 72 h
Summary of the method: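 Luminescent ATP read-out after 72 h at 37 °C gave IC50 values; compounds tested as 9 three-fold serial dilutions on 5000 SNU16 cells per well, with DMSO as control.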

T1 sequence (P21802 22-821): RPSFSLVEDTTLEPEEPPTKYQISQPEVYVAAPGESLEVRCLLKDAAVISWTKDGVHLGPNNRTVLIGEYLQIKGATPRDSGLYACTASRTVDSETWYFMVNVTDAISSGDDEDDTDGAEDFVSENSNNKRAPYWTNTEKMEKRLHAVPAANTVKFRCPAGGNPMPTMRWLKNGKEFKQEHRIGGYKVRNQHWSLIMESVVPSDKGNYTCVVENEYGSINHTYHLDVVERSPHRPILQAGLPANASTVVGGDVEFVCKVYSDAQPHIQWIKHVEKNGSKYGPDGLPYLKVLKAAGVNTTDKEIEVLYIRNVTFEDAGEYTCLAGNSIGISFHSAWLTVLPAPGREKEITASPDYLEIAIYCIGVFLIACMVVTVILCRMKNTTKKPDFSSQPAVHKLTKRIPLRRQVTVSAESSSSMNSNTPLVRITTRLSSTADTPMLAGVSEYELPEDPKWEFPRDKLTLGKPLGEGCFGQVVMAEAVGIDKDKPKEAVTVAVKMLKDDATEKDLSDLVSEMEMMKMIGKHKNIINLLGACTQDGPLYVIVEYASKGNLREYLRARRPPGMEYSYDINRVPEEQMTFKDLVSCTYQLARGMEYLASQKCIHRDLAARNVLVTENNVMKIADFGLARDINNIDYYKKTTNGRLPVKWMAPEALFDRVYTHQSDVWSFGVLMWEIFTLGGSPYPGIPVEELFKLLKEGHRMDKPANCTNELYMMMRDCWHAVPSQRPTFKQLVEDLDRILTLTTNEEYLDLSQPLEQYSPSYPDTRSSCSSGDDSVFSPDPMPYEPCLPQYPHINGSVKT

| IC50 (FGFR2) [nM] | IC50 (SNU16 cells) [nM] | SMILES | Selectivity FGFR1/FGFR2 (FGFR1) | Selectivity FGFR3/FGFR2 (FGFR3) |
| --- | --- | --- | --- | --- |
| < 5 | ≤ 10 | C=CC(=O)Nc1ccc(-c2c(-c3cc(F)c(Oc4ncc(F)c(C)n4)c(F)c3)c3c(N)ncc(C#N)c3n2C)cc1 [Compound 497] | A+ (Selectivity of FGFR1/FGFR2 greater or equal to 500) | A+ (Selectivity of FGFR3/FGFR2 greater or equal to 150) |
| 5 to 10 | ≤ 10 | C=C(F)C(=O)Nc1ccc(-c2c(-c3ccc(C(=O)NCC(F)(F)F)c(OC)c3)c3c(N)ncc(C#N)c3n2C)c(F)c1 [Compound 151, 4-(4-amino-7-cyano-2-(2-fluoro-4-(2-fluoroacrylamido)phenyl)-1-methyl-1H-pyrrolo [3,2-c]pyridin-3-yl)-2-methoxy-N-(2,2,2-trifluoroethyl)benzamide] | A+ (Selectivity of FGFR1/FGFR2 greater or equal to 500) | A+ (Selectivity of FGFR3/FGFR2 greater or equal to 150) |
| < 5 | ≤ 10 | C=CC(=O)Nc1ccc(-c2nn3ncnc(N)c3c2-c2ccc(C(=O)NC3CCCC3)c(OC)c2)cc1 [Compound 55, 4-(6-(4-acrylamidophenyl)-4-aminopyrazolo[5,1-f] [1,2,4]triazin-5-yl)-N-cyclopentyl-2-methoxybenzamide] | A+ (Selectivity of FGFR1/FGFR2 greater or equal to 500) | A (Selectivity of FGFR3/FGFR2 less than 150 but greater than or equal to 100) |
| < 5 | > 50 | C=CC(=O)Nc1ccc(-c2c(-c3ccc(Oc4nccc(C)n4)c(OC)c3)c3c(N)ncc(C(N)=O)c3n2C)cc1 [Compound 21, 2-(4-acrylamidophenyl)-4-amino-3-(3-methoxy-4-((4-methylpyrimidin-2-yl)oxy)phenyl)-1-methyl-1H-pyrrolo[3,2-c]pyridine-7-carboxamide] | A+ (Selectivity of FGFR1/FGFR2 greater or equal to 500) | A (Selectivity of FGFR3/FGFR2 less than 150 but greater than or equal to 100) |
| < 5 | ≤ 10 | C=CC(=O)Nc1ccc(-c2c(-c3ccc(C(=O)NCCF)c(OC)c3)c3c(N)ncc(C#N)c3n2C)cc1 [Compound 189, 4-(2-(4-acrylamidophenyl)-4-amino-7-cyano-1-methyl-1H-pyrrolo[3,2-c]pyridin-3-yl)-N-(2-fluoroethyl)-2-methoxybenzamide] | B (Selectivity of FGFR1/FGFR2 less than 300 but greater than or equal to 200) | B (Selectivity of FGFR3/FGFR2 less than 100 but greater than or equal to 25) |
| > 10 | ≤ 10 | C=C(C)C(=O)Nc1ccc(-c2c(-c3ccc(Oc4nccc(C)n4)cc3)c3c(N)ncc(C#N)c3n2C)c(F)c1 [Compound 467, N-(4-(4-amino-7-cyano-1-methyl-3-(4-((4-methylpyrimidin-2-yl)oxy)phenyl)-1H-pyrrolo[3,2-c]pyridin-2-yl)-3-fluorophenyl) methacrylamide] | A+ (Selectivity of FGFR1/FGFR2 greater or equal to 500) | A+ (Selectivity of FGFR3/FGFR2 greater or equal to 150) |
| 5 to 10 | ≤ 10 | C=CC(=O)Nc1ccc(-c2nn3ncnc(N)c3c2-c2ccc(C(=O)NCC(C)(C)OC)c(OC)c2)cc1 [Compound 56, 4-(6-(4-acrylamidophenyl)-4-aminopyrazolo[5,1-f] [1,2,4]triazin-5-yl)-2-methoxy-N-(2-methoxy-2-methylpropyl)benzamide] | A+ (Selectivity of FGFR1/FGFR2 greater or equal to 500) | A (Selectivity of FGFR3/FGFR2 less than 150 but greater than or equal to 100) |
| 5 to 10 | ≤ 10 | C=CC(=O)Nc1ccc(-c2nn3ncnc(N)c3c2-c2ccc(OC3CCCCC3)cc2)cc1 [Compound 228, N-(4-(4-amino-5-(4-(cyclohexyloxy)phenyl)pyrazolo[5,1-f][1,2,4]triazin-6-yl)phenyl)acrylamide] | A+ (Selectivity of FGFR1/FGFR2 greater or equal to 500) | A+ (Selectivity of FGFR3/FGFR2 greater or equal to 150) |
| < 5 | ≤ 10 | C=CC(=O)Nc1ccc(-c2nn3ncnc(N)c3c2-c2ccc(C(=O)NCC(F)(F)F)c(OC)c2)c(F)c1 [Compound 86, 4-(6-(4-acrylamido-2-fluorophenyl)-4-aminopyrazolo[5,1-f] [1,2,4]triazin-5-yl)-2-methoxy-N-(2,2,2-trifluoroethyl)benzamide] | A+ (Selectivity of FGFR1/FGFR2 greater or equal to 500) | B (Selectivity of FGFR3/FGFR2 less than 100 but greater than or equal to 25) |
| < 5 | ≤ 10 | C=CC(=O)Nc1ccc(-c2c(-c3ccc(C(=O)NCC(F)F)c(OC)c3)c3c(N)ncc(C#N)c3n2C)cc1 [Compound 198, 4-(2-(4-acrylamidophenyl)-4-amino-7-cyano-1-methyl-1H-pyrrolo[3,2-c]pyridin-3-yl)-N-(2,2-difluoroethyl)-2-methoxybenzamide] | A (Selectivity of FGFR1/FGFR2 less than 500 but greater than or equal to 300) | A+ (Selectivity of FGFR3/FGFR2 greater or equal to 150) |
| 5 to 10 | ≤ 10 | C=C(F)C(=O)Nc1ccc(-c2[nH]c3c(C#N)cnc(N)c3c2-c2ccc(C(=O)NC3(C)CC3)c(OC)c2)cc1 [Compound 321, 4-(4-amino-7-cyano-2-(4-(2-fluoroacrylamido)phe-ny1)-1H-pyrrolo[3,2-c]pyridin-3-yl)-2-methoxy-N-(1-methylcyclopropyl)benzamide] | C (Selectivity of FGFR1/FGFR2 less than 200 but greater than or equal to 100) | A+ (Selectivity of FGFR3/FGFR2 greater or equal to 150) |
| < 5 | ≤ 10 | C=C(C)C(=O)Nc1ccc(-c2nn3ncnc(N)c3c2-c2ccc(Oc3nccc(C)n3)c(F)c2)c(Cl)c1 [Compound 451] | A (Selectivity of FGFR1/FGFR2 less than 500 but greater than or equal to 300) | B (Selectivity of FGFR3/FGFR2 less than 100 but greater than or equal to 25) |
| 5 to 10 | 10 to 50 | C=CC(=O)Nc1ccc(-n2nc3c(=O)[nH]nc(N)c3c2-c2ccc(Oc3cccc(C)n3)c(OC)c2)cc1 [Compound 115] | C (Selectivity of FGFR1/FGFR2 less than 200 but greater than or equal to 100) | A+ (Selectivity of FGFR3/FGFR2 greater or equal to 150) |
| < 5 | ≤ 10 | C=CC(=O)Nc1ccc(-c2nn3ncnc(N)c3c2-c2ccc(Oc3nccc(C)n3)c(F)c2)cc1 [Compound 205, N-(4-(4-amino-5-(3-fluoro-4-((4-methylpyrimidin-2-yl)oxy)phenyl)pyrazolo [5,1-f][1,2,4]triazin-6-yl)phenyl)acrylamide] | A+ (Selectivity of FGFR1/FGFR2 greater or equal to 500) | B (Selectivity of FGFR3/FGFR2 less than 100 but greater than or equal to 25) |
| < 5 | ≤ 10 | C=CC(=O)Nc1ccc(-c2c(-c3ccc(C(=O)NC4CC4)c(OC)c3)c3c(N)ncc(C#N)c3n2C)cc1 [Compound 105] | A+ (Selectivity of FGFR1/FGFR2 greater or equal to 500) | A (Selectivity of FGFR3/FGFR2 less than 150 but greater than or equal to 100) |
